Patent US7138361B2, “Herbicidal heterocycles” (E. I. du Pont de Nemours and Company, priority 2000, dated 2006)

Key:
Type in all cases: in vivo
[1] = tested on: rice (Oryza saliva); assay: Test C flooded paddy test; conditions: for Rice plant response rating: Flooded Paddy, scale 0 to 100, 0 no effect, 100 complete control; for Plant response rating, Rice: flooded paddy test, scale 0 to 100 (0 no effect, 100 complete control)
Outline: (§1)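 Response on a 0-to-100 scale (no effect to complete control) was assessed by eye versus controls. Plants had reached 2 leaves when treated in flooded paddy conditions. The assessment took place after 12–14 days of greenhouse growth.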

[2] = tested on: barnyardgrass (Echinochloa crus-galli); assay: Test C flooded paddy test; conditions: for Barnyardgrass plant response rating: Flooded Paddy, scale 0 to 100, 0 no effect, 100 complete control; for Plant response rating, Barnyardgrass: flooded paddy test, scale 0 to 100 (0 no effect, 100 complete control)
Outline: as §1

[3] = tested on: Sunflower; assay: Test C preemergence; conditions: Rate 250 g/ha, visual evaluation after 12 to 14 days
[4] = tested on: Sunflower; assay: Test C preemergence
[5] = tested on: Surinam grass (Brachiaria decumbens); assay: Test C preemergence
Outline: (§2)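 Herbicidal effect is a visual 0–100 score (100 = complete control) assigned versus untreated plants, 12 to 14 days after spraying in the greenhouse. Test compounds were applied in a non-phytotoxic, surfactant-containing solvent.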

[6] = tested on: bermudagrass (Cynodon dactylon); assay: Test C preemergence
Outline: as §2

[7] = tested on: morningglory (Ipomoea hederacea); assay: Test C preemergence
Outline: as §2

[8] = tested on: common ragweed (Ambrosia elatior); assay: Test C preemergence
Outline: as §2

[9] = tested on: giant foxtail (Setaria faberii); assay: Test C preemergence
Outline: as §2

[10] = tested on: corn (Zea mays); assay: Test C preemergence
Outline: as §2

[11] = tested on: johnsongrass (Sorghum halepense); assay: Test C preemergence
Outline: as §2

[12] = tested on: pigweed (Amaranthus retroflexus); assay: Test C preemergence
Outline: as §2

[13] = tested on: lambsquarters (Chenopodium album); assay: Test C preemergence
Outline: as §2

[14] = tested on: cocklebur (Xanthium strumarium); assay: Test C preemergence
Outline: as §2

[15] = tested on: goosegrass (Eleusine indica); assay: Test C preemergence
Outline: as §2

[16] = tested on: woolly cupgrass (Eriochloa villosa); assay: Test C preemergence
Outline: as §2

[17] = tested on: yellow nutsedge (Cyperus esculentus); assay: Test C preemergence
Outline: as §2

[18] = tested on: crabgrass (Digitaria sanguinalis); assay: Test C preemergence
Outline: as §2

[19] = tested on: velvetleaf (Abutilon theophrasti); assay: Test C preemergence
Outline: as §2

[20] = tested on: Nightshade; assay: Test C preemergence
[21] = tested on: soybean (Glycine max); assay: Test C preemergence
Outline: as §2

[22] = Rate 62 g/ha, scale 0 to 100, 0 no effect, 100 complete control
[23] = Preemergence, Rate 500 g/ha, scale 0 to 100
[24] = preemergence, Rate 250 g/ha, visual evaluation after 12 to 14 days
[25] = preemergence, Rate 125 g/ha, scale 0 to 100, 0 no effect, 100 complete control

SMILES: CC(C)c1ccn(C2SCN(c3cccc(OC(F)(F)F)c3)C2=O)n1 (stereo not drawn) [Compound 31]
- Rice plant response rating ([1]; Rate 250 g/ha): 90
- Rice plant response rating ([1]; Rate 500 g/ha): 90
- Plant response rating, Rice ([1]; Rate 62 g/ha): 30
- Plant response rating, Rice ([1]; Rate 125 g/ha): 60
- Barnyardgrass plant response rating ([2]; Rate 250 g/ha): 90
- Barnyardgrass plant response rating ([2]; Rate 500 g/ha): 100
- Plant response rating, Barnyardgrass ([2]; Rate 62 g/ha): 80
- Plant response rating, Barnyardgrass ([2]; Rate 125 g/ha): 80
- Plant response rating (0 to 100), Sunflower [3]: 40
- Plant response rating, Sunflower [4, 22]: 20
- Plant response rating, Sunflower ([4]; Rate 500 g/ha, scale 0 to 100): 40
- Plant response rating, Surinam grass [5, 23]: 70
- Plant response rating, Surinam grass [5, 22]: 50
- Plant response rating (0 to 100), Surinam grass [5, 24]: 60
- Plant response rating, Surinam grass [5, 25]: 50
- Plant response rating, Bermudagrass [6, 23]: 100
- Plant response rating, Bermudagrass [6, 22]: 90
- Plant response rating (0 to 100 where 0 is no effect and 100 is complete control), Bermudagrass [6, 24]: 100
- Plant response rating, Bermudagrass [6, 25]: 100
- Plant response rating, Morningglory [7, 23]: 50
- Plant response rating, Morningglory [7, 22]: 30
- Plant response rating (0 to 100), Morningglory [7, 24]: 40
- Plant response rating, Morningglory [7, 25]: 30
- Plant response rating, Ragweed, Common [8, 23]: 100
- Plant response rating, Ragweed, Common [8, 22]: 30
- Plant response rating (0 to 100), Ragweed, Common [8, 24]: 90
- Plant response rating, Ragweed, Common [8, 25]: 90
- Plant response rating, Foxtail, Giant [9, 23]: 100
- Plant response rating, Foxtail, Giant [9, 22]: 40
- Plant response rating (0 to 100), Foxtail, Giant [9, 24]: 60
- Plant response rating, Foxtail, Giant [9, 25]: 50
- Plant response rating, Corn [10, 23]: 60
- Plant response rating, Corn [10, 22]: 40
- Plant response rating (0 to 100), Corn [10, 24]: 40
- Plant response rating, Corn [10, 25]: 40
- Plant response rating, Johnsongrass [11, 23]: 100
- Plant response rating, Johnsongrass [11, 22]: 30
- Plant response rating (0 to 100), Johnsongrass [11, 24]: 90
- Plant response rating, Johnsongrass [11, 25]: 60
- Plant response rating, Pigweed [12, 23]: 90
- Plant response rating, Pigweed [12, 22]: 30
- Plant response rating (0 to 100), Pigweed [12, 24]: 80
- Plant response rating, Pigweed [12, 25]: 100
- Plant response rating, Lambsquarters [13, 23]: 100
- Plant response rating, Lambsquarters [13, 22]: 100
- Plant response rating (0 to 100), Lambsquarters [13, 24]: 100
- Plant response rating, Lambsquarters [13, 25]: 100
- Plant response rating, Cocklebur [14, 23]: 30
- Plant response rating, Cocklebur [14, 22]: 0
- Plant response rating (0 to 100), Cocklebur [14, 24]: 30
- Plant response rating, Cocklebur [14, 25]: 0
- Plant response rating, Goosegrass [15, 23]: 100
- Plant response rating, Goosegrass [15, 22]: 100
- Plant response rating (0 to 100), Goosegrass [15, 24]: 100
- Plant response rating, Goosegrass [15, 25]: 100
- Plant response rating, Cupgrass, Woolly [16, 23]: 100
- Plant response rating, Cupgrass, Woolly [16, 22]: 50
- Plant response rating (0 to 100), Cupgrass, Woolly [16, 24]: 90
- Plant response rating, Cupgrass, Woolly [16, 25]: 60
- Plant response rating, Nutsedge [17, 23]: 90
- Plant response rating, Nutsedge [17, 22]: 40
- Plant response rating (0 to 100), Nutsedge [17, 24]: 70
- Plant response rating, Nutsedge [17, 25]: 50
- Plant response rating, Crabgrass [18, 23]: 100
- Plant response rating, Crabgrass [18, 22]: 100
- Plant response rating (0 to 100), Crabgrass [18, 24]: 100
- Plant response rating, Crabgrass [18, 25]: 100
- Plant response rating, Velvetleaf [19, 23]: 30
- Plant response rating, Velvetleaf [19, 22]: 0
- Plant response rating (0 to 100), Velvetleaf [19, 24]: 30
- Plant response rating, Velvetleaf [19, 25]: 0
- Plant response rating, Nightshade [20, 22]: 80
- Plant response rating, Nightshade ([20]; Rate 125 g/ha, scale 0 to 100, 0 no effect, 100 complete control): 90
- Plant response rating, Nightshade ([20]; Rate 500 g/ha, scale 0 to 100): 100
- Plant response rating, Soybean [21, 23]: 0
- Plant response rating, Soybean [21, 22]: 0
- Plant response rating (0 to 100), Soybean [21, 24]: 0
- Plant response rating, Soybean [21, 25]: 0
